# Measured values published in article PMC12767876, “Synthesis and evaluation of enantiomeric quinoline-2-carboxamides: positron emission tomography imaging agents for the translocator protein” (RSC Medicinal Chemistry, 2025).
# Like-named read-outs stand apart in the source and are kept apart here.
# Assays:
# TSPO [1] = biological target: T1, TSPO (Homo sapiens, UniProt P30536); experiment: [3H]PK11195 competition binding assay on homogenised human brain tissue (frontal cortex) from rs6971 genotyped HAB, MAB and LAB donors; details: for influence of rs6971 polymorphism on binding: HAB vs. LAB, unpaired t-test, p = 0.5273, n = 6 per genotype
# Procedure: All studies using human tissue were conducted and approved in accordance with the National Health Service Research Ethics Committee Southeast Scotland (NHS-RECSE, Edinburgh Brain and Tissue Bank, 16/ES/0084). Informed consents were obtained from human participants of this study. The Edinburgh Brain and Tissue code and BNN reference numbers for all new tissue samples used in this study are: SD022/13 (BBN_15222), SD038/13 (BBN_18391), SD037/14 (BBN_23395), SD051/14 (BBN_24340), SD012/15 (BBN_25055), SD032/16 (0.01.29084), SD027/12 (BBN_13410), SD038/12 (BBN_4176), SD006/14 (BBN_20593), SD008/14 (BBN_20592), SD020/14 (BBN_22611), SD011/15 (BBN_24781), SD023/12 (BBN_3785), SD029/13 (BBN_15809), SD036/13 (BBN_18392), SD046/13 (BBN_18407), SD034/14 (BBN_22628) and SD031/15 (001.26124). […] Binding was terminated with the addition of ice cold buffer before being immediately filtered over Whatman GF/B filter paper (Whatman, UK) pre-treated with 0.3% polyethylenimine (Sigma-Aldrich, USA) using a Brandel harvester (Brandel, USA). Filter paper was then removed, placed into Optiphase HiSafe 3 (2.5 mL) (Perkin Elmer, USA) and counted 48 h later on a Hidex 300 SL (Hidex, Finland). […] All binding assays were performed in triplicate. GraphPad Prism version 9 (GraphPad Software, USA) was used to fit all binding affinity curves. Curves were fitted using a one-site binding model.
# [2] = HPLC determination of partition coefficient (log P) using C18 column; format: physicochemical
# Text: (§1) The selection of potential candidates as neurological imaging agents requires evaluation of key physicochemical properties. […] For agents that rely primarily on passive diffusion, the membrane partition coefficient is particularly critical. […] Taken together, these physicochemical properties and in vivo studies support the potential of LW223 as a neurological imaging agent. Although the R-enantiomer of LW223 was used to determine the physicochemical properties in this study, these values are expected to be representative of the S-enantiomer, which is consistent with observations for other enantiomeric pairs.[32] [table]
# [3] = HPLC determination of membrane permeability (Pm) and membrane partition coefficient (Km) using immobilised artificial membrane (IAM) column; format: physicochemical
# Text: as §1
# human serum albumin = human serum albumin (Homo sapiens, UniProt P02768); experiment: HPLC determination of plasma protein binding using human serum albumin coated column; format: in vitro ADME; details: read-out: % PPB (plasma protein binding) (converted)
# Text: as §1
# TSPO [4] = biological target: T1, TSPO; parameters: method as in PMID 32859708; details: human brain (and heart) tissues, cited from earlier work
# [5] = parameters: method as in PMID 32859708, PMID 37795635; details: murine brain; cited from earlier work
# T1 sequence (P30536 2-169): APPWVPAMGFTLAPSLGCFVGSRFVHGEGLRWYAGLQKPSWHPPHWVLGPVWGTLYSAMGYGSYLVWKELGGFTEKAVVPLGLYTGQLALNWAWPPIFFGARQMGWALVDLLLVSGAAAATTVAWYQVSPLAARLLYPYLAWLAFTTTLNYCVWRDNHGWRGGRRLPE
# Sequence of human serum albumin (P02768 25-609): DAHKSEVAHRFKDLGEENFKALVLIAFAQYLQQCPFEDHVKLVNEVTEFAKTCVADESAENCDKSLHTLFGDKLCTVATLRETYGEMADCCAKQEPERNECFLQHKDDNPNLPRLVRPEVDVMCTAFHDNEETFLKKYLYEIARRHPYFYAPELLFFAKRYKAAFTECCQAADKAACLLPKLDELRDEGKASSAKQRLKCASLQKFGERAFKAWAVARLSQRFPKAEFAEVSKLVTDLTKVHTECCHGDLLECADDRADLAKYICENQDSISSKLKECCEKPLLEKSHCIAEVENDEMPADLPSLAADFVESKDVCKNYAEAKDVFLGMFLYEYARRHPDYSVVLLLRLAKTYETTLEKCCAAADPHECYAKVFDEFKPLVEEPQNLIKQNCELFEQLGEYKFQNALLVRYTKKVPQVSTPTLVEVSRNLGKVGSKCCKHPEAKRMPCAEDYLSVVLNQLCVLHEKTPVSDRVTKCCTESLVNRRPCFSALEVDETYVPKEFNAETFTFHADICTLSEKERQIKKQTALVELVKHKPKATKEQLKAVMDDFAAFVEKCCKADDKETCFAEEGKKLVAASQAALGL
Compound,influence of rs6971 polymorphism on binding (TSPO [1]),influence of rs6971 polymorphism on binding (TSPO [1]; listed as S-enantiomer),fold lower affinity for TSPO compared to (R)-LW223 (TSPO [1]; human brain homogenate) [fold],fold lower affinity for TSPO relative to PK11195 (TSPO [1]; human brain homogenate) [fold],"Ki (TSPO [1]; human brain homogenate, all genotypes (HAB, MAB, LAB), n = 18, 1 nM [3H]PK11195, 1.5 h at 4 °C, Kd […], mean ± SD, read-out: TSPO affinity (Ki)) [nM]",chromatographic logP [2],K m (membrane partition coefficient) [3],fraction unbound (human serum albumin),influence of rs6971 polymorphism on binding (TSPO [4]),influence of rs6971 polymorphism on binding (TSPO [4]; listed as (R)-LW223),blood–brain barrier crossing and non-specific binding [5]
"CC[C@H](C)N(C)C(=O)c1nc2ccccc2c(-c2ccccc2)c1CF [(S)-LW223, (S)-(N-sec-Butyl)-3-(fluoromethyl)-N-methyl-4-phenylquinoline-2-carboxamide]",not significantly influenced by the rs6971 polymorphism,insensitive to the rs6971 polymorphism,7.5,3.75,4.5 ± 0.7,–,–,–,–,–,–
"CC[C@@H](C)N(C)C(=O)c1nc2ccccc2c(-c2ccccc2)c1CF [LW223, (R)-N-(sec-Butyl)-3-(fluoromethyl)-N-methyl-4-phenylquinoline-2-carboxamide]",–,–,–,–,–,4.13,195,0.08,unaffected by rs6971,not significantly influenced by the rs6971 polymorphism,effectively crosses the BBB and exhibits low non-specific binding
"CCC(C)N(C)C(=O)c1cc2ccccc2c(-c2ccccc2Cl)n1 (centres unmarked) [PK11195, reference compound]",–,–,–,–,–,3.98,184,0.08,–,–,–
